Reference: patent US20250197461A1, “Insect-derived short peptide for improving abscisic acid (ABA) content in cruciferous plant” (Gannan Normal University, priority 2023, published 2025)

Test system: Arabidopsis thaliana leaves
Assay: Non-targeted metabolomics of Arabidopsis thaliana leaves treated with short peptide
Format: in vivo
Details: 0.01 mg/mL, vs GFP control
Experimental: In this experiment, the materials used for metabonomics analysis and phytohormone detection are Arabidopsis thaliana samples with consistent growth status. Synthetic short peptide of GSS1-PI with the corresponding concentration and mass was weighed and dissolved in 0.1% DMSO to obtain a 0.01 mg/mL treatment solution. A wild-type Arabidopsis thaliana plant of about four weeks old was taken, two cotyledons were collected and mechanically damaged to obtain three small holes, 2 μL of the GSS1-PI solution was added dropwise into each small hole, while GFP solution was used as the control group. After 24 h and 48 h of treatment, approximately 0.2 g of Arabidopsis thaliana leaves were collected, and each treatment had three biological replicates. The leaves were quickly placed in liquid nitrogen and stored in a −80° C. ultra-low temperature refrigerator for subsequent phytohormone group detection and metabolomic analysis.
100 mg of Arabidopsis thaliana leaves was taken and added with liquid nitrogen for full grinding, and the fine powder was put in a 1.5 mL centrifuge tube. 500 μL of 80% methanol aqueous solution was pipette in the centrifuge tube and subjected to vortex oscillation to mix well, and the centrifuge tube was put on ice for 5 min. After standing, the mixture was centrifuged at 15000 g at 4° C. for 20 min. Then, 200 μL of supernatant was pipette and diluted with appropriate amount of mass spectrometry water until the methanol content in the solution was 53%. The dilution was centrifuged again for 20 min, the supernatant was retained and loaded for LC-MS analysis of the sample.
Related instruments were set as follows: chromatographic column temperature: 40° C.; injection flow rate: 0.2 mL/min; Positive ion mode: 0.1% formic acid for mobile phase A; mass grade methanol for mobile phase B; Negative ion mode: 5 mM ammonium acetate for mobile phase A, and mass grade methanol for mobile phase B.
The scanning range was m/z 100-1500: the setting of ESI signal source was as follows: spray voltage: […]; sheath gas flow rate: 35 psi; auxiliary gas flow rate: 10 L/min; ion transport tube temperature: 320° C.; iontophoresis RF frequency: 60; auxiliary heater temperature: 350° C.; MS/MS secondary scanning is set to dependency scanning data.
After the experiment was completed, the relevant data files were imported into the database search software for analysis and processing, and the residence time, mass-to-charge ratio and other related parameters of each metabolite were simply screened and checked. In order to identify more accurately, the different samples were peak-aligned, with the retention time deviation of 0.2 min and mass deviation of 5 ppm. Then peak extraction and peak area quantification were carried out to integrate the target ions, and then ion peaks were predicted by molecular formula and compared with local data. In order to remove the interference of background ions, the original quantitative results were standardized and blank sample controls were added. Finally, the relative quantitative results of the relevant metabolites were obtained and identified.
Multivariate statistical analysis of metabolite data included two parts, component analysis (PCA) and partial least squares discriminant analysis (PLS-DA). The data was converted by metaX, a metabonomics processing software, to get the VIP value of each metabolite. In univariate analysis, the statistical significance (P value) between the two groups of metabolites was analyzed by t test, and the fold change of metabolites between the two groups, that is, FC value, was calculated. The default screening criteria for differential metabolites were VIP>1, P value<0.05 and FC≥2 or FC≤0.5.

Question: “PDYKQKLRDSKAWESLETIGIPLDADVM (insect-derived short peptide) [GSS1-PI]” was tested. Which “log2FC 2-Phenylacetamide” value (24 h) did it give?
Answer: 0.608

Question: And the “log2FC 3,4,5-Trimethoxycinnamic acid” value (24 h)?
Answer: −1.348

Question: What about the “log2FC (−)-chimonanthine” value (24 h) of the same sequence?
Answer: 0.731

Question: What about the “log2FC Coumarin” value (24 h) of the same sequence?
Answer: −1.039

Question: And the “log2FC Cytosine” value (24 h)?
Answer: 1.096

Question: And the “log2FC Eriodictyol” value (24 h)?
Answer: 0.908

Question: And the “log2FC Gracillin” value (24 h)?
Answer: −1.823

Question: And the “log2FC Hesperidin” value (24 h)?
Answer: 0.708

Question: What about the “log2FC Hippuric acid” value (24 h) of the same sequence?
Answer: −0.465

Question: And the “log2FC L-arginine” value (24 h)?
Answer: −0.600

Question: And the “log2FC Madecassic acid” value (24 h)?
Answer: 1.041

Question: What about the “log2FC Methyl dihydrojasmonate” value (24 h) of the same sequence?
Answer: 0.784

Question: And the “log2FC N-Methyltryptamine” value (24 h)?
Answer: −0.651

Question: And the “log2FC Ptaquiloside” value (24 h)?
Answer: −1.418

Question: What about the “log2FC Quercetin 3-O-sophoroside” value (24 h) of the same sequence?
Answer: −2.173

Question: What about the “log2FC Rhoifolin” value (24 h) of the same sequence?
Answer: 0.699

Question: What about the “log2FC Spectinomycin” value (24 h) of the same sequence?
Answer: 0.579

Question: What about the “log2FC Tiglic acid” value (24 h) of the same sequence?
Answer: −0.663

Question: And the “log2FC cis-2-Decenoic acid” value (24 h)?
Answer: −0.599

Question: And the “log2FC α-Linolenoyl ethanolamide” value (24 h)?
Answer: 1.586

Question: What about the “log2FC 2′-O-Methyladenosine” value (48 h) of the same sequence?
Answer: 1.543

Question: And the “log2FC 3,4,5-Trimethoxycinnamic acid” value (48 h)?
Answer: −2.132

Question: What about the “log2FC 5α-Dihydrotestosterone glucuronide” value (48 h) of the same sequence?
Answer: −1.186

Question: What about the “log2FC 5′-Deoxy-5′-(Methylthio)Adenosine” value (48 h) of the same sequence?
Answer: 1.330

Question: What about the “log2FC 20-Hydroxyecdysone” value (48 h) of the same sequence?
Answer: −1.153

Question: What about the “log2FC Allantoic acid” value (48 h) of the same sequence?
Answer: −1.815

Question: And the “log2FC Alpha-Mangostin” value (48 h)?
Answer: 1.363

Question: And the “log2FC Benzamide” value (48 h)?
Answer: 1.564

Question: What about the “log2FC Camelliaside A” value (48 h) of the same sequence?
Answer: 1.640

Question: What about the “log2FC Cimifugin” value (48 h) of the same sequence?
Answer: 1.872

Question: And the “log2FC Coumarin” value (48 h)?
Answer: −1.930

Question: What about the “log2FC Cucurbitacin E” value (48 h) of the same sequence?
Answer: 1.309

Question: And the “log2FC DL-Methionine” value (48 h)?
Answer: 1.393

Question: And the “log2FC DL-Panthenol” value (48 h)?
Answer: 1.615

Question: And the “log2FC N-(p-Coumaroyl) serotonin” value (48 h)?
Answer: −1.010

Question: And the “log2FC Neopterin” value (48 h)?
Answer: 1.709

Question: And the “log2FC Saikosaponin B4” value (48 h)?
Answer: −1.655

Question: What about the “log2FC Sclareolide” value (48 h) of the same sequence?
Answer: −2.003

Question: What about the “log2FC Scopoletin” value (48 h) of the same sequence?
Answer: −1.518

Question: What about the “log2FC Sinapinic acid” value (48 h) of the same sequence?
Answer: −1.203
